“And” between values parts separate entries of the source, which are not always exact repeats. Equal entries are not always repeated.
Key:
[1] = tested on: PANC-1 cells; assay: Cell uptake of [18F]olaparib in PANC-1 cells; type: cell-based, human; conditions: radiation dose-dependent
Method: PARP1 levels in a limited selection of PDAC cell lines were determined using Western blot and confirmed by immunofluorescence microscopy. […] Uptake was reported as a percentage of the total amount added, per mg of total protein recovered from the isolated cells, determined by BCA assay. Specificity of uptake was determined by blocking olaparib binding sites using an excess of cold, unlabeled olaparib, or other PARP inhibitors (rucaparib, talazoparib).
Cell uptake of ^18F-olaparib in Panc-1, MiaPaCa-2 and Capan-1 cells was determined as previously described (Cornelissen, B., Hu, M., McLarty, K., Costantini, D. & Reilly, R. M.
Cellular penetration and nuclear importation properties of 111In-labeled and 123I-labeled HIV-1 tat peptide immunoconjugates in BT-474 human breast cancer cells. Nucl Med Biol 34, 37-46, 2007; Thurber, G. M., Reiner, T., Yang, K. S., Kohler, R. H. & Weissleder, R. Effect of small-molecule modification on single-cell pharmacokinetics of PARP inhibitors. Molecular cancer therapeutics 13, 986-995, 2014; Reiner, T., et al. Imaging therapeutic PARP inhibition in vivo through bioorthogonally developed companion imaging agents. Neoplasia 14, 169-177, 2012). Aliquots of Panc-1, MiaPaca-2, and Capan-1 cells (1.5×10^5 cells/well) were seeded in 24-well plates in warm cell culture medium (500 μL) and the cells were allowed to adhere overnight. Cells were irradiated (10 Gy; dose rate 0.8 Gy/min) or sham-irradiated and then returned to an incubator (37° C., 5% CO2) for 2 h. […] In the blocking groups, non-radioactive olaparib, talazoparib, or rucaparib were also added in increasing concentrations (10 pM-10 μM. After 30 or 60 minutes, the cell culture medium was removed and combined with two washes (500 μL) of cell culture medium. The remaining monolayer of cells was then lysed with 0.1 M sodium hydroxide for 20 minutes at room temperature. The amount of radioactivity contained within the cell culture medium and the cell lysate fractions was measured using a gamma counter. Protein levels from parallel plates were quantified using a Pierce BCA protein assay kit (Thermo Scientific) according to the manufacturer's recommendations and bovine serum albumin was used as the protein standard. Cell uptake levels of [^18F]-olaparib were normalised to percent of the total added radioactivity per milligram protein. […] IC50 values were calculated using GraphPad Prism software (GraphPad Software, San Diego, CA, USA). […]
Aliquots of Panc-1, MiaPaca-2, and Capan-1 cells (7.5×10^4 cells/well) were seeded in 24-well plates in warm cell culture medium (500 μL). […] The amount of radioactivity contained within the cell culture medium and the cell lysate fractions was measured using a gamma counter. […]

[2] = tested on: Panc-1 xenograft; assay: Ex vivo biodistribution in Panc-1 xenograft bearing mice
Method: Animals were housed in IVC cages in sex-matched groups up to 5 per cage, in an artificial day-night cycle facility, with ad libitum access to food and water. […] CaNT xenografts were generated by harvesting CaNT tumours from donor animals, and injecting a tumour homogenate subcutaneously in the flank of wild type CBA/Carl mice. Tumours were irradiated (10 Gy, 2 Gy/min) using a 300 kV X-ray device.
Biodistribution studies, where selected tissues were harvested, were performed 1 h post injection. Some animals were also administered an excess of cold, unlabelled olaparib for evaluating the specificity of tumour uptake. EF5, a hypoxia-selective marker, was injected 2 h before culling of the animal. Digital autoradiography was performed on tumour sections. Image analysis was performed using PMOD.
Cells were harvested using trypsin, washed twice using PBS, and reconstituted in DMEM. […] Tumour volumes (V) were calculated after calliper measurement using the following equation: V=(a^2×b)/2, where a is the width of the tumour and b the length (small and large diameters, respectively). The individual relative tumour volume (RTV) was defined as Vt/Vo, where Vt is the volume at a given time and Vo at the start of treatment. Animals were entered in in vivo studies when their tumour was at least 200 mm^3.
Two hours prior to PET/CT imaging, animals were exposed to X-irradiation of the tumour (10 Gy or sham) (see schedule in FIG. 13). Radiation was delivered using a Gulmay 320 kV X-irradiator; 2.0 Gy/min. […] Naïve CBA/Carl mice, not bearing tumours, were not irradiated, nor was EF5 administered.
Dynamic PET/CT images were acquired using a VECTor ^4CT integrated PET/CT system. Mice were anaesthetised by 4% isoflurane gas (0.5 L/min O2) and placed on a custom-built imaging cradle in a prone position.
After PET/CT image acquisition, animals were euthanized by cervical dislocation and selected organs, tissues and blood were removed. […] Counts per minute were converted into MBq using a calibration curve generated from known standards. Values were decay-corrected to the time of injection, and the percentage of the injected dose per gram (% ID/g) of each tissue was calculated.

[3] = tested on: Panc-1 xenograft; assay: as above; conditions: Panc-1 xenograft mice, 1 h p.i., individual animals

`O=C(c1cc(Cc2n[nH]c(=O)c3ccccc23)ccc1[18F])N1CCN(C(=O)C2CC2)CC1` [[^18F]olaparib] was tested, and the “[^18F]olaparib uptake after gamma-irradiation” value [1] was “increased”, the “tumour uptake (group mean)” value ([2]; PANC-1 xenografts, 1 h after i.v. bolus, tracer alone) was 3.16±0.36 % ID/g and the “increase of tumour uptake after irradiation” value ([2]; PANC-1 xenografts, 2 h after 10 Gy vs non-irradiated) was 70%. The “tumour uptake (group mean)” value ([2]; PANC-1 xenografts, 2 h after irradiation (10 Gy)) was 5.35±1.16 % ID/g, the “tumour uptake (group mean)” value ([2]; PANC-1 xenografts, co-injection of excess cold olaparib) was 1.20±0.17 % ID/g and the “Ex vivo biodistribution Small intestine” value ([2]; Panc-1 xenograft mice, + IR (10 Gy), 1 h p.i., individual animals) was 65.1 % ID/g and 113 % ID/g and 95.2 % ID/g. For the same molecule, the “Ex vivo biodistribution Kidney” value ([3]; + IR (10 Gy)) was 10.0 % ID/g and 9.25 % ID/g and 10.6 % ID/g, the “Ex vivo biodistribution Large intestine” value ([3]; + IR (10 Gy)) was 27.5 % ID/g and 28.9 % ID/g and 16.2 % ID/g and the “Ex vivo biodistribution Liver” value ([3]; + IR (10 Gy)) was 25.1 % ID/g and 33.8 % ID/g and 45.7 % ID/g. For the same molecule, the “Ex vivo biodistribution Pancreas” value ([3]; + IR (10 Gy)) was 13.6 % ID/g and 10.3 % ID/g and 11.4 % ID/g, the “Ex vivo biodistribution Spleen” value ([3]; + IR (10 Gy)) was 45.0 % ID/g and 20.5 % ID/g and 14.3 % ID/g and the “Ex vivo biodistribution Stomach” value ([3]; + IR (10 Gy)) was 4.15 % ID/g and 0.92 % ID/g and 0.87 % ID/g. The “Ex vivo biodistribution Bone” value ([3]; + block (excess cold olaparib)) was 1.06 % ID/g and 0.78 % ID/g and 0.80 % ID/g and 0.46 % ID/g, the “Ex vivo biodistribution Kidney” value ([3]; + block (excess cold olaparib)) was 13.1 % ID/g and 5.09 % ID/g and 3.98 % ID/g and 2.44 % ID/g and the “Ex vivo biodistribution Large intestine” value ([3]; + block (excess cold olaparib)) was 20.1 % ID/g and 13.3 % ID/g and 61.4 % ID/g and 12.7 % ID/g. The “Ex vivo biodistribution Liver” value ([3]; + block (excess cold olaparib)) was 29.1 % ID/g and 32.9 % ID/g and 22.4 % ID/g and 23.1 % ID/g, the “Ex vivo biodistribution Pancreas” value ([3]; + block (excess cold olaparib)) was 1.92 % ID/g and 2.29 % ID/g and 1.91 % ID/g and 1.79 % ID/g and the “Ex vivo biodistribution Small intestine” value ([3]; + block (excess cold olaparib)) was 89.9 % ID/g and 77.2 % ID/g and 96.4 % ID/g and 132 % ID/g. The “Ex vivo biodistribution Spleen” value ([3]; + block (excess cold olaparib)) was 1.62 % ID/g and 1.46 % ID/g and 1.24 % ID/g and 0.69 % ID/g, the “Ex vivo biodistribution Stomach” value ([3]; + block (excess cold olaparib)) was 1.44 % ID/g and 0.79 % ID/g and 0.46 % ID/g and 0.21 % ID/g and the “Ex vivo biodistribution Bone” value ([3]; tracer alone) was 3.38 % ID/g and 4.54 % ID/g. For the same molecule, the “Ex vivo biodistribution Kidney” value ([3]; tracer alone) was 10.5 % ID/g and 7.95 % ID/g and 6.02 % ID/g and 7.04 % ID/g and 3.41 % ID/g and 3.66 % ID/g, the “Ex vivo biodistribution Large intestine” value ([3]; tracer alone) was 12.6 % ID/g and 30.5 % ID/g and 80.8 % ID/g and 27.0 % ID/g and 28.9 % ID/g and 6.61 % ID/g and the “Ex vivo biodistribution Liver” value ([3]; tracer alone) was 26.2 % ID/g and 34.6 % ID/g and 27.0 % ID/g and 21.0 % ID/g and 13.5 % ID/g and 18.0 % ID/g. The “Ex vivo biodistribution Pancreas” value ([3]; tracer alone) was 8.49 % ID/g and 9.38 % ID/g and 7.25 % ID/g and 5.52 % ID/g and 2.78 % ID/g and 4.24 % ID/g, the “Ex vivo biodistribution Small intestine” value ([3]; tracer alone) was 54.5 % ID/g and 58.1 % ID/g and 30.6 % ID/g and 31.9 % ID/g and 18.6 % ID/g and 26.6 % ID/g and the “Ex vivo biodistribution Spleen” value ([3]; tracer alone) was 17.5 % ID/g and 13.7 % ID/g and 11.3 % ID/g and 14.0 % ID/g and 7.36 % ID/g and 8.01 % ID/g. For the same molecule, the “Ex vivo biodistribution Stomach” value ([3]; tracer alone) was 2.59 % ID/g and 3.53 % ID/g and 1.81 % ID/g and 1.80 % ID/g and 0.55 % ID/g and 0.60 % ID/g.
